Reference: US20210198284A1, “GOLD COMPOSITIONS AND METHODS OF USE THEREOF” (THE UNIVERSITY OF MASSACHUSETTS, priority 2018, published 2021)

Columns and labels:
Type in all cases: cell-based
A. baumannii NCTC 13420 = experiment: Antibacterial assay, MIC/MBC by broth microdilution (CLSI)
Method in brief: (§1)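 CLSI broth microdilution in cation-adjusted Mueller Hinton broth, log-phase inoculum diluted to 7.5×10^5 CFU/mL before 1:1 mixing with two-fold compound dilutions, triplicates, 18 h at 37 °C static. MIC: >90% inhibition by OD600; MBC: lowest concentration giving no colonies after 5 μL spotted on agar, 18 h, 37 °C.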

E. cloacae NCTC 13405 = experiment: as above; details: for MBC (in brackets) / MIC: E. cloacae NCTC 13405; for MIC: repeated twice, a/b = both values
Method in brief: as §1

E. coli ATCC 25922 = experiment: as above; details: for MIC: repeated twice, a/b = both values
Method in brief: as §1

[1] = system: K. pneumoniae ATCC 700603; experiment: as above
Method in brief: as §1

P. aeruginosa NCTC 13437 = experiment: as above; details: for MBC (in brackets) / MIC: P. aeruginosa NCTC 13437; for MIC: repeated twice, a/b = both values
Method in brief: as §1

S. aureus JE2 (USA300) = experiment: as above; details: for MBC (in brackets) / MIC: S. aureus JE2 (USA300); for MIC: repeated twice, a/b = both values
Method in brief: as §1

C. albicans ATCC 90028 = experiment: Antifungal MIC
[2] = system: C. neoformans ATCC 208821; experiment: Antifungal MIC; details: for MIC: C. neoformans ATCC 208821
C. neoformans KN99 = experiment: Antifungal MIC
E. cloacae = experiment: Antimicrobial screening of auranofin analogs
Text: (§2) Auranofin analogs were synthesized by varying the structure of the thio-sugar ligand and the phosphine ligands. These analogs were screened for antimicrobial activity against 5 key ESKAPE pathogens and E. coli. (Table 3). The “ESKAPE” pathogens consist of six pathogens with growing multidrug resistant virulence: Enterococcus faecium (gram-positive), Staphylococcus aureus (gram-positive), Klebsiella pneumoniae (gram-negative), Acinetobacter (gram-negative), Pseudomonas aeruginosa (gram-negative) and Eterobacter (gram-negative). According to the data from the Centers for Disease Control and Prevention (CDC), two-thirds of all clinical infections are caused by these six ESKAPE bacteria.

E. faecalis = experiment: Antimicrobial screening of auranofin analogs
Text: as §2

K. pneumoniae = experiment: Antimicrobial screening of auranofin analogs
Text: as §2

MRSA = experiment: Antimicrobial screening of auranofin analogs
Text: as §2

P. aeruginosa = experiment: Antimicrobial screening of auranofin analogs
Text: as §2

S. aureus = experiment: Antimicrobial screening of auranofin analogs
Text: as §2

Gram-negative strains = experiment: In vitro antimicrobial activities, Gram-negative strains taken together; details: Gram-negative strains tested
Description: Antibacterial assay. The minimum inhibitory concentrations (MICs) and the minimum bactericidal concentrations (MBCs) were determined by the broth microdilution method as described in the CLSI (The Clinical & Laboratory Standards Institute) guidelines (Performance standards for antimicrobial susceptibility testing: Clinical and Laboratory Standards Institute (CLSI), Twenty-Fifth informational supplement. Document M100-S25: […]; Vol. 35). All bacterial strains were cultured in cation-adjusted Muller Hinton broth (CAMHB) up to log-phase and then diluted to give a concentration of 7.5×10^5 CFU/mL. The gold complexes were dissolved in DMSO or water as stock solutions, which were then serially diluted two-fold in a 96-well plate. Aliquots (100 μL) of the dilutions were mixed with equal volumes of the bacterium suspension in a 96 well plate (in triplicates). The plates were incubated at 37° C. for 18 h without shaking. Negative and positive controls were included in the same well plate with wells having the culture medium only and bacteria solution only, respectively. The sample concentration that gave inhibition values above 90% were determined as MICs as calculated from absorbance values at 600 nm (OD600) obtained using a Tecan SPARK IOM plate reader. […] The sample concentration that gave no colony formed on agar plates were determined as MBCs. […]

E. faecalis ATCC 700221 = experiment: Antibacterial assay, MIC/MBC by broth microdilution (CLSI); details: for MIC: repeated twice, a/b = both values
Method in brief: as §1

[3] = A. baumannii NCTC 13420, repeated twice, a/b = both values
[4] = K. pneumoniae ATCC 700603, repeated twice, a/b = both values

Substance	MBC (in brackets) (A. baumannii NCTC 13420; A. baumannii NCTC 13420)	MIC (A. baumannii NCTC 13420; [3])	MBC (in brackets) (E. cloacae NCTC 13405)	MIC (E. cloacae NCTC 13405)	MBC (in brackets) (E. coli ATCC 25922)	MIC (E. coli ATCC 25922)	MBC (in brackets) ([1]; K. pneumoniae ATCC 700603)	MIC [1, 4]	MBC (in brackets) (P. aeruginosa NCTC 13437)	MIC (P. aeruginosa NCTC 13437)	MBC (in brackets) (S. aureus JE2 (USA300))	MIC (S. aureus JE2 (USA300)) [μM/mL]	MIC (C. albicans ATCC 90028) [µg/mL]	MIC [2] [µg/mL]	MIC (C. neoformans KN99) [µg/mL]	MBC (in brackets) (E. faecalis ATCC 700221)	MIC (E. faecalis ATCC 700221)	other results
(2,3,4,6-Tetra-O-acetyl-1-thio-β-D-glucopyranosato) (triethylphosphine) gold(I) [Compound 1, reference compound]	47(47) μM/mL	47(47) μM/mL	189 (189) μM/mL	189 (189) μM/mL	24 (24) μM/mL	24 (24) μM/mL	377 (377) μM/mL	377 (377) μM/mL	377 (377) μM/mL	377 (377) μM/mL	(0.09) μM/mL	0.04	>32	8	16	–	–	MIC/MBC (A. baumannii NCTC 13420; A. baumannii): 47 µM; MIC/MBC ([1]; K. pneumoniae): 377 µM; antifungal activity in words ([2]; C. neoforman, strain not named): moderate antifungal activity; activity in words (E. cloacae): lacked significant activity; bactericidal activity at the lowest tested concentration (E. faecalis): ≤ 0.5 µg/mL; activity in words (K. pneumoniae): lacked significant activity; bactericidal activity at the lowest tested concentration (MRSA): ≤ 0.25 µg/mL; activity in words (P. aeruginosa): lacked significant activity; bactericidal activity at the lowest tested concentration (S. aureus): ≤ 0.5 µg/mL; activity in words (Gram-negative strains): no activity
(2-Aminobenzenethiolato)(triethylphosphine) gold(I) [Compound 19]	18 μM/mL	18/36	(36/73)	18/73	36 (36) μM/mL	36 (36) μM/mL	146 (146) μM/mL	146 (146) μM/mL	291 (291) μM/mL	291 (291) μM/mL	(0.6) μM/mL	0.009	–	–	2	(0.1) μM/mL	0.02 μM/mL	MIC values in words (S. aureus JE2 (USA300); S. aureus): nanomolar range
(2-Mercaptoethanolato)(trimethylphosphine) gold (I) [Compound 27]	23 μM/mL	6/3	3 (3) μM/mL	3 (3) μM/mL	11 μM/mL	1/6	23 μM/mL	11 μM/mL	91 μM/mL	23/91	0.7 μM/mL	0.3	–	–	–	0.3 (0.3) μM/mL	0.3 (0.3) μM/mL	MIC (A. baumannii NCTC 13420; A. baumannii): 5.7 µM; MIC/MBC (E. cloacae NCTC 13405; E. cloacae): 2.9 µM; MIC/MBC, fold lower than / improvement over auranofin (E. cloacae NCTC 13405; E. cloacae): 65 fold; MIC ([1]; K. pneumoniae): 11 µg/mL; MIC or MIC/MBC, fold lower than auranofin ([1]; K. pneumoniae): 34 fold; activity in words (P. aeruginosa NCTC 13437; P. aeruginosa): showed activity
[2,3,4,6-Tetra-O-acetyl-α-D-glucopyranosyl (1→4)-2,3,6-tri-O-acetyl-1-thio-β-D-glucopyranosato](triethylphosphine) gold(I) [Compound 5]	33 (33) μM/mL	33 (33) μM/mL	66 (66) μM/mL	66 (66) μM/mL	17 (17) μM/mL	17 (17) μM/mL	–	>265 μM/mL	132 (132) μM/mL	132 (132) μM/mL	(0.06) μM/mL	0.008	>32	>32	–	6 (0.1) μM/mL	–	–
